In patent publication US8088749B2, “Compositions and methods for treating cancer” (The Regents of the University of Michigan, priority 2007, dated 2012):
Entries after “also recorded” stand apart in the source; their conditions may differ.

What was measured:
ATDC [1] = experiment: Western blot analysis of ATDC after miRNA mimic transfection, BXPC-3 cells; assay type: cell-based, human; conditions: 36 h after transfection with miRNA mimics
Procedure: (§1) FIGS. 31A and B are L3.6PL cells, and FIGS. 31 C and D are BXPC3 cells. The lanes in these figures is as follows: 1(a). Lipofectamine2000 only; 2(b). Control miRNA; 3. miR-299-5p; 4. miR-185; 5. miR-522; 6. miR-506; 7. miR-765; 8. miR-362; 9. miR-515-5p; 10. miR-661; 11. miR-525; c. miR-34a; d. miR-34b; e. miR-34c; f. miR-150; g. miR-296; h. miR-500; and i. miR-650.
(§2) For testing the miRNAs for ATDC, Western blot analysis of pancreatic cancer cells transfected was carried out with the miRNAs by Lipofactamine2000. […] They are miR-34a, miR-34c, miR-296, miR-650, miR-299-5p, miR-185, miR-765, miR-522, and miR-362.

ATDC [2] = experiment: Western blot analysis of ATDC after miRNA mimic transfection, L3.6PL cells; assay type: cell-based, human; conditions: 36 h after transfection with miRNA mimics
Procedure: as §1, §2

ATDC [3] = experiment: ATDC localization after nuclear export inhibition, Panc-1 cells; assay type: cell-based, human; conditions: 1 ng/ml, 6 hours
Procedure: In previous reports, ATDC was described as being predominately cytoplasmic in several cell types (see, e.g., Reymond A, et al., Embo J 2001; 20, 2140-2151; Brzoska P M, et al., Proc. Natl. Acad. Sci. USA 1995; 92, 7824-7828), conflicting with its potential role in the DNA damage response/DNA repair. In localization studies, it was determined that both endogenous ATDC and GFP-tagged ATDC had predominantly cytoplasmic localization, with some staining in the nucleus. To better understand how a protein with predominately cytoplasmic localization might be involved in the DNA response, wild type Panc-1 cells was treated with the nuclear export inhibitor leptomycin B (1 ng/ml) for 6 hours.

ATDC [4] = experiment: ATDC gene expression in gastric cancer KATO III cells; assay type: cell-based; conditions: human gastric cancer KATO III cells
Procedure: Next, the miRNAs regulation of ATDC by qRT-PCR was examined. 24 hours after miRNA mimic transfection of the cancer cells (100 pmol per well in 6-well plates), ATDC mRNA levels were measured by qRT-PCR with TaqMan SYBR Green PCR System (Applied Biosystems). Briefly, total RNA was extracted from the transfected cells using TRIZOL (Invitrogen) according to the manufacturer's instructions. Reverse transcription was performed using a TaqMan Reverse Transcription Kit (Applied Biosystems). For qRT-PCR, 1 μl of gene primers with SYBR Green (Applied Biosystems) in 20 μl of reaction volume was applied. Primers for ATDC: Forward: 5′-[…]-3′ (SEQ ID NO:45), Reverse: 5′-[…]-3′ (SEQ ID NO:46).

Dvl-2 [5] = experiment: Western blot after Dvl-2 shRNA transfection, HEK 293 cells; assay type: cell-based, human; conditions: transient transfection
Procedure: (§3) FIG. 26. The oncogenic effects of ATDC are mediated by Dvl-2. (A. B) The effects of Dvl-2 shRNA 1 or 2 on b-catenin expression is shown in representative Western blots of HEK 293 (A) and MiaPaCa2 cells […] with or without ATDC overexpression. (C, D) TCF reporter activity was assessed in Dvl-2 shRNA 1 or 2-transfected HEK 293 (C) or Mia PaCa2 cells (D) with (+) or without (−) ATDC overexpression. The results from 3 separate experiments, performed in triplicate (*p<0.05 vs empty vector-transfected cells). (E. F) MTS proliferation assays in Dvl-2 shRNA1 or 2-transfected HEK 293 (E) and MiaPaCa2 (F) cells with (+) or without (−) ATDC overexpression (n=3, *p<0.05 vs wild type cells). (G) TCF reporter activity was measured in HEK 293, SW480, DLD-1 and HCT-116 cells with vector (white bars) or ATDC (black bars) transfection using the β-catenin responsive TOPFLASH reporter and the mutant control FOPFLASH reporter. The mean of the TOP/FOP ratio, as compared with the activity, for three independent experiments, performed in triplicate. […] The experiments were repeated three times and the data is expressed as the mean±SE. […] 48 hours after transfection, cell growth rates were assessed. […]

Dvl-2 [6] = experiment: Western blot after Dvl-2 shRNA transfection, MiaPaCa2 cells; assay type: cell-based, human; conditions: transient transfection
Procedure: as §3

| Molecule | ATDC protein levels (ATDC [1]) | ATDC protein levels (ATDC [2]) | further results |
| --- | --- | --- | --- |
| miR-650: miRNA mimic (CAGGACUCUCGCGACGGAGGA; listed as RNA, chemistry not given here; listed as Homo sapiens) | potently reduced | potently reduced; also recorded: less potent |  |
| miR-765: miRNA mimic (GUAGUGGAAGGAAGAGGAGGU; listed as RNA, chemistry not given here; listed as Homo sapiens) | potently reduced | potently reduced; also recorded: less potent |  |
| CCC(=C/[C@H](C)C/C=C/C(C)=C/[C@@H](C)C(=O)[C@@H](C)[C@H](O)[C@@H](C)C/C(C)=C/C(=O)O)/C=C/[C@@H]1OC(=O)C=C[C@@H]1C [leptomycin B] |  |  | ATDC localization (ATDC [3]): ATDC accumulation in the nucleus; ATDC localization (ATDC [3]; listed as leptomycin): nuclear retention of ATDC |
| miR-185: miRNA mimic (CUUGACGGAAAGAGAGGU; listed as RNA, chemistry not given here; listed as Homo sapiens) | potently reduced | potently reduced |  |
| miR-522: miRNA mimic (UUGUGAGAUUUCCCUUGGUAAAA; listed as RNA, chemistry not given here; listed as Homo sapiens) | potently reduced | potently reduced |  |
| miR-362: miRNA mimic (UGAGUGUGGAUCCAAGGUUCCUAA; listed as RNA, chemistry not given here; listed as Homo sapiens) | potently reduced | potently reduced |  |
| miR-34c: miRNA mimic (CGUUAGUCGAUUGAUGUGACGGA; listed as RNA, chemistry not given here; listed as Homo sapiens) | potently reduced | potently reduced |  |
| miR-34a: miRNA mimic (UUGUUGGUCGAUUCUGUGACGGU; listed as RNA, chemistry not given here; listed as Homo sapiens) | potently reduced | potently reduced | ATDC gene expression (ATDC [4]): potently down-regulated; also recorded: significantly inhibited |
| miR-299-5p: miRNA mimic (UACAUACACCCUGCCAUUUGGU; listed as RNA, chemistry not given here; listed as Homo sapiens) | potently reduced | potently reduced |  |
| Dvl-2 shRNA 2: shRNA to Dvl-2, sense and anti-sense SEQ ID NOs: 9 and 10 (OriGene) (nucleic acid, listed as Homo sapiens, the letters are possibly those of the target site) sense: CACCGGACCGCATGTGGCTCAAGATCACCATCCCGAAGGATGGTGATCTTGAGCCACATGCGGTCC antisense: AAAAGGACCGCAGTGGCTCAAGATCACCATCCTTCGGGATGGTGATCTTGAGCCACATGCGGTCC |  |  | levels of Dvl-2 (Dvl-2 [5]): effective; levels of Dvl-2 (Dvl-2 [6]): effective |
| Dvl-2 shRNA 1: shRNA to Dvl-2, sense and anti-sense SEQ ID NOs: 7 and 8 (OriGene) (nucleic acid, listed as Homo sapiens, the letters are possibly those of the target site) sense: CACCTGTAGCTGCCTTTGTTACTCTATTTATTTCGAAAAATAAATAGAGTAACAAAGGCAGCTACA antisense: AAAATGTAGCTGCCTTTGTTACTCTATTTATTTATTCGAAATAAATAGAGTAACAAAGGCAGCTACA |  |  | levels of Dvl-2 (Dvl-2 [5]): effective; levels of Dvl-2 (Dvl-2 [6]): effective |
